Measurements reported in PubChem BioAssay AID2060886 (Molecular Pharmacology Branch, DTP, NCI, 2025).

Tested on: 653999-131-R-J2-PDC complex spheroids, growth inhibition
Assay: Anticancer human tumor 653999-131-R-J2-PDC patient-derived lung adenocarcinoma cell line growth inhibition [RAS]
Details: for IC50: curve of first compound; for viability, T/C: stronger effect = lower value
Source text: RAS pathway inhibitors in Combinations in Complex Spheroids
A high-throughput screen of multi-cell type tumor spheroids was designed to identify active combinations of RAS pathway inhibitors and targeted small molecules. Complex spheroids include a stromal component modeled by human endothelial cells (HUVEC) and fibroblasts modeled by human mesenchymal stem cells (MSCs). The concentration ranges selected for each drug and investigational agent were based upon clinically achievable concentrations if the clinical Cmax of the agent was known.
Compounds. The drugs and investigational agents: abemaciclib (NSC768073), cobimetinib (NSC768068), divarasib (GDC6063, NSC841802), docetaxel (NSC628503), GDC-1971 (RLY-1971, NSC841576), gemcitabine (NSC613327), inavolisib (NSC800729), ipatasertib (NSC767898), KB-0742 (NSC834161), MRTX-1133 (NSC836407), osimertinib (NSC779217), RMC-4630 (NSC839698), RMC-6236 (NSC851965), RMC-6291 (NSC852671), Ro-3306 (NSC812927), sapanisertib (NSC764658), SN-38 (NSC673596), staurosporine (NSC755774), SY5609 (NSC837396), and tovorafenib (DAY101, NSC766906), were obtained from the National Cancer Institute (NCI) Developmental Therapeutics Program Chemical Repository. The FDA-approved anticancer drug set is available from the NCI Developmental Therapeutics Program. […] The stock solutions were prepared in dimethyl sulfoxide (DMSO, Sigma-Aldrich, St. Louis, MO, cat. D2650) at 800-fold the tested concentration and stored at -70 degrees C prior to their use. All drugs and investigational agents were tested over a range starting from a high concentration at or near the clinical Cmax and decreasing in half-log increments. If the clinical Cmax for an agent had not been determined, the highest concentration tested was 10 microM.
Cell Culture. All cells were maintained in an incubator at 37 degrees C and 5% CO2 with 95% humidity. The PDC lines were cultured according to standard operating procedures established by the NCI PDMR. All PDCs were thawed and cultured in Matrigel-coated flasks prepared with a working solution of 1X Ham's F-12 nutrient mix, without supplementation (Invitrogen, Waltham, MA, cat. 11765054), 100 U/mL penicillin-streptomycin (Invitrogen, cat. 15140122), and 2.5% Matrigel (Corning Inc., Corning, NY, cat. 354248) for the first three passages. The 362531-283-R-J2-PDC and 782815-120-R-J1-PDC lines were cultured in 6C/Colon 1B media, which includes advanced DMEM/F-12 (Thermo Fisher Scientific, cat. 12634028), 10 mM HEPES (Thermo Fisher Scientific, cat. 15630080), 1X GlutaMAX supplement (Thermo Fisher Scientific, cat. 35050061), 0.1 mg/mL primocin (InvivoGen, San Diego, CA, cat. ant-pm-2), 10% defined fetal bovine serum, heat inactivated (HyClone Laboratories Inc., Logan, UT, cat. SH30070.03HI), 50% L-WRN conditioned media (ATCC, cat. CRL-3276), 1.25 mM N-Acetyl-L-cysteine (Sigma-Aldrich, cat. A9165), 10 mM nicotinamide (Sigma-Aldrich, cat. N0636), 1X B-27 supplement (Thermo Fisher Scientific, cat. 17504044), 1X N-2 supplement (Thermo Fisher Scientific, cat. 17502048), 50 ng/mL human EGF (Thermo Fisher Scientific, cat. PHG0311), and 10 microM Y-27632 dihydrochloride (Tocris Bioscience, cat. 1254). The K12877-001-R-J1-PDC line was cultured in 6I media, which includes all 6C/Colon 1B media plus 10 ng/mL human FGF-10 (PeproTech, cat. 100-26), 1 ng/mL human FGF-2 (PeproTech, cat. 100-18B), 1 µM prostaglandin E2 (Tocris Bioscience, cat. 2296), […] hydrocortisone (Sigma-Aldrich, cat. H4001), and […] bovine insulin (Sigma-Aldrich, cat. I6634). The K86415-001-R-J1-PDC line was cultured in 6D media, which includes all 6C/Colon 1B media components minus the L-WRN conditioned media. The 485176-168-R4-J1-PDC was cultured in PANC media, which includes all 6C/Colon 1B media plus 100 ng/mL human FGF-10 (PeproTech, cat. 100-26), 500 nM SB-431542 (Selleckchem, cat. S1067), and 10 nM gastrin (Tocris Bioscience, cat. 3006). […]
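Note: spheroids exposed to the agents for seven days before the readout.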

Question: Which IC50 (second compound 0.0316 µM) does the source give for `C=CC(=O)N1CCN(c2nc(OCC3CCCN3C)nc3c(F)c(-c4nc(N)cc(C)c4C(F)(F)F)c(Cl)cc23)C(C)C1` (configuration not stated) + C#Cc1c(F)ccc2cc(O)cc(-c3ncc4c(N5CC6CCC(C5)N6)nc(OCC56CCCN5CC(F)C6)nc4c3F)c12 here?
Answer: The IC50 was greater than 1 µM.

Question: And the IC50 (second compound 0.1 µM)?
Answer: Its IC50 is greater than 1 µM.

Question: What about the IC50 (second compound 0.316 µM) of the same compound?
Answer: The IC50 was greater than 1 µM.

Question: What about the IC50 (second compound 1 µM) of the same compound?
Answer: Its IC50 is greater than 1 µM.

Question: And the IC50 (second compound 3.16 µM)?
Answer: Its IC50 is less than 0.00316 µM.

Question: What about the IC50 (second compound 10 µM) of the same compound?
Answer: Its IC50 is less than 0.00316 µM.

Question: What about the viability, T/C (second compound 0.0316 µM, first compound 0.00316 µM) of the same compound?
Answer: Its viability, T/C is 117%.

Question: And the viability, T/C (second compound 0.0316 µM, first compound 0.01 µM)?
Answer: Its viability, T/C is 91.3%.

Question: What about the viability, T/C (second compound 0.0316 µM, first compound 0.0316 µM) of the same compound?
Answer: Its viability, T/C is 95.9%.

Question: What about the viability, T/C (second compound 0.0316 µM, first compound 0.1 µM) of the same compound?
Answer: The viability, T/C was 82.3%.

Question: And the viability, T/C (second compound 0.0316 µM, first compound 0.316 µM)?
Answer: Its viability, T/C is 99.1%.

Question: And the viability, T/C (second compound 0.0316 µM, first compound 1 µM)?
Answer: Its viability, T/C is 85.2%.

Question: And the viability, T/C (second compound 0.1 µM, first compound 0.00316 µM)?
Answer: Its viability, T/C is 92.7%.

Question: What about the viability, T/C (second compound 0.1 µM, first compound 0.01 µM) of the same compound?
Answer: The viability, T/C was 84.1%.

Question: And the viability, T/C (second compound 0.1 µM, first compound 0.0316 µM)?
Answer: Its viability, T/C is 73.9%.

Question: And the viability, T/C (second compound 0.1 µM, first compound 0.1 µM)?
Answer: The viability, T/C was 78.5%.

Question: And the viability, T/C (second compound 0.1 µM, first compound 0.316 µM)?
Answer: Its viability, T/C is 83.3%.

Question: And the viability, T/C (second compound 0.1 µM, first compound 1 µM)?
Answer: Its viability, T/C is 73.1%.

Question: And the viability, T/C (second compound 0.316 µM, first compound 0.00316 µM)?
Answer: The viability, T/C was 71.7%.

Question: And the viability, T/C (second compound 0.316 µM, first compound 0.01 µM)?
Answer: Its viability, T/C is 62.5%.

Question: What about the viability, T/C (second compound 0.316 µM, first compound 0.0316 µM) of the same compound?
Answer: Its viability, T/C is 65.6%.

Question: And the viability, T/C (second compound 0.316 µM, first compound 0.1 µM)?
Answer: Its viability, T/C is 67.8%.

Question: And the viability, T/C (second compound 0.316 µM, first compound 0.316 µM)?
Answer: Its viability, T/C is 70.2%.

Question: And the viability, T/C (second compound 0.316 µM, first compound 1 µM)?
Answer: The viability, T/C was 52.8%.

Question: What about the viability, T/C (second compound 1 µM, first compound 0.00316 µM) of the same compound?
Answer: Its viability, T/C is 41.5%.

Question: What about the viability, T/C (second compound 1 µM, first compound 0.01 µM) of the same compound?
Answer: The viability, T/C was 63%.

Question: And the viability, T/C (second compound 1 µM, first compound 0.0316 µM)?
Answer: Its viability, T/C is 54%.

Question: And the viability, T/C (second compound 1 µM, first compound 0.1 µM)?
Answer: Its viability, T/C is 53.8%.

Question: What about the viability, T/C (second compound 1 µM, first compound 0.316 µM) of the same compound?
Answer: The viability, T/C was 55.4%.

Question: What about the viability, T/C (second compound 1 µM, first compound 1 µM) of the same compound?
Answer: Its viability, T/C is 46.5%.

Question: And the viability, T/C (second compound 3.16 µM, first compound 0.00316 µM)?
Answer: The viability, T/C was 38%.

Question: What about the viability, T/C (second compound 3.16 µM, first compound 0.01 µM) of the same compound?
Answer: The viability, T/C was 55.2%.

Question: And the viability, T/C (second compound 3.16 µM, first compound 0.0316 µM)?
Answer: Its viability, T/C is 39%.

Question: What about the viability, T/C (second compound 3.16 µM, first compound 0.1 µM) of the same compound?
Answer: Its viability, T/C is 35%.

Question: And the viability, T/C (second compound 3.16 µM, first compound 0.316 µM)?
Answer: Its viability, T/C is 43.8%.

Question: And the viability, T/C (second compound 3.16 µM, first compound 1 µM)?
Answer: The viability, T/C was 31.4%.

Question: What about the viability, T/C (second compound 10 µM, first compound 0.00316 µM) of the same compound?
Answer: Its viability, T/C is 24.5%.

Question: And the viability, T/C (second compound 10 µM, first compound 0.01 µM)?
Answer: The viability, T/C was 26.7%.

Question: And the viability, T/C (second compound 10 µM, first compound 0.0316 µM)?
Answer: The viability, T/C was 20.8%.

Question: And the viability, T/C (second compound 10 µM, first compound 0.1 µM)?
Answer: The viability, T/C was 31.9%.

Question: And the viability, T/C (second compound 10 µM, first compound 0.316 µM)?
Answer: Its viability, T/C is 27%.

Question: What about the viability, T/C (second compound 10 µM, first compound 1 µM) of the same compound?
Answer: Its viability, T/C is 29.6%.
